Test results as given in ChEMBL document CHEMBL2046391, “Calyxamides A and B, cytotoxic cyclic peptides from the marine sponge Discodermia calyx” (J Nat Prod, 2012).
Active and inactive are the calls of the source.

Legend:
Escherichia coli = test: Antimicrobial activity against Escherichia coli at 100 ug/disc measured every 24 hrs for 4 days by disc diffusion method; type: functional, organism-based
Beauveria bassiana = test: Antimicrobial activity against Beauveria bassiana ARSEF 8354 at 100 ug/disc measured every 24 hrs for 4 days by disc diffusion method; type: functional
Colletotrichum acutatum = test: Antimicrobial activity against Colletotrichum acutatum at 100 ug/disc measured every 24 hrs for 4 days by disc diffusion method; type: functional, organism-based
Drosophila melanogaster = test: Insecticidal activity against Drosophila melanogaster at 100 ug; type: functional, organism-based
Aedes aegypti = test: Insecticidal activity against Aedes aegypti larvae at 100 ug/mL after 24 hrs; type: functional, organism-based
Bacillus cereus = test: Antimicrobial activity against Bacillus cereus at 100 ug/disc measured every 24 hrs for 4 days by disc diffusion method; type: functional, organism-based
Lactuca sativa = test: Phytotoxicity against lettuce seedling at 50 ug/mL by seedling elongation assay; type: functional, organism-based
Saccharomyces cerevisiae = test: Antimicrobial activity against Saccharomyces cerevisiae at 100 ug/disc measured every 24 hrs for 4 days by disc diffusion method; type: functional, organism-based
Botrytis cinerea = test: Antimicrobial activity against Botrytis cinerea at 100 ug/disc measured every 24 hrs for 4 days by disc diffusion method; type: functional, organism-based
Caco-2 = test: Antiproliferative activity against human Caco2 cells at 100 uM by XTT assay; type: functional, cell-based
MCF7 = test: Antiproliferative activity against human MCF7 cells at 100 uM by XTT assay; type: functional, cell-based

Measured: Activity

CC[C@H](C)C[C@H](C)[C@H]1OC(=O)[C@H](Cc2ccccc2)NC(=O)/C(C)=C/[C@H](C)[C@@H](O)/C(C)=C/[C@H](C)[C@H](OC(C)=O)/C(C)=C/[C@@H]1C
not listed: Caco-2 | MCF7
inactive: all other assays above

CC[C@H](C)C[C@H](C)[C@H]1OC(=O)[C@H](Cc2ccccc2)NC(=O)/C(C)=C/[C@H](C)[C@@H](O)/C(C)=C/[C@H](C)[C@H](O)/C(C)=C\[C@@H]1C
inactive: Caco-2 | MCF7
